Measurements published in ChEMBL document CHEMBL1156825, “Design, synthesis, and docking studies of novel benzimidazoles for the treatment of metabolic syndrome” (J Med Chem, 2010).
Calls of active or inactive are those of the source. The rule behind the calls is not given here.

Key:
[1] = biological target: T1, Peroxisome proliferator-activated receptor gamma (Homo sapiens) (UniProt P37231); assay: Agonist activity at human recombinant PPARgamma expressed in CV1 cells coexpressing GAL4 assessed as receptor transactivation at 10 uM by luciferase reporter gene assay relative to full agonist; format: functional, cell-based; settings: CV-1
T1 sequence (whole entry): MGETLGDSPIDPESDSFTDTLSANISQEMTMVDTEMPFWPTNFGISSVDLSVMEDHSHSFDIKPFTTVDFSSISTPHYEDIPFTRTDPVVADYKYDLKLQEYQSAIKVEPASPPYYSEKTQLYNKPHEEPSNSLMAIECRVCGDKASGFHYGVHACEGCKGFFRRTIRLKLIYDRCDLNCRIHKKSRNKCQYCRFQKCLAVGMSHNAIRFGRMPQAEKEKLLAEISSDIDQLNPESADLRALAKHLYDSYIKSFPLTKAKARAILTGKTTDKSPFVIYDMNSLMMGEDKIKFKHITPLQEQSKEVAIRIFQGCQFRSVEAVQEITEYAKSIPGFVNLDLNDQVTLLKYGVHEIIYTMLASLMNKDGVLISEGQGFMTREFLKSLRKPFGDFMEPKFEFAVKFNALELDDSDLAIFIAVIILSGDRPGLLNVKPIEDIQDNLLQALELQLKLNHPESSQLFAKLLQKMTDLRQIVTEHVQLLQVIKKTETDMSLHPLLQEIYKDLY

[2] = biological target: T2, Type-1 angiotensin II receptor A (Rattus norvegicus, UniProt P25095); assay: Displacement of [125I]SI-Ang2 from AT1 receptor in Sprague-Dawley rat liver membrane; format: cell membranes
T2 sequence (P25095 whole entry): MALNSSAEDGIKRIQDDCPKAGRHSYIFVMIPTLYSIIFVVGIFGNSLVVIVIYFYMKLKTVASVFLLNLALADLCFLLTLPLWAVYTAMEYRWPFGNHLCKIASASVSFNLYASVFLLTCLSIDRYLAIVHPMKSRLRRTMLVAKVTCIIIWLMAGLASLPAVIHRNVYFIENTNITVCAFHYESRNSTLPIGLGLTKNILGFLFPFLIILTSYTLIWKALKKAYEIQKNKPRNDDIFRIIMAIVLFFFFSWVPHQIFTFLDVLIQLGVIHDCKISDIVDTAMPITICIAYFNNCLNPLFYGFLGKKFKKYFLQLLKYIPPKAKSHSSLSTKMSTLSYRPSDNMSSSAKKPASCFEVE

[3] = biological target: T3, Peroxisome proliferator-activated receptor alpha (Homo sapiens) (UniProt Q07869); assay: Agonist activity at PPARalpha assessed as receptor transactivation by reporter gene assay relative to control; format: functional
T3 sequence (whole entry): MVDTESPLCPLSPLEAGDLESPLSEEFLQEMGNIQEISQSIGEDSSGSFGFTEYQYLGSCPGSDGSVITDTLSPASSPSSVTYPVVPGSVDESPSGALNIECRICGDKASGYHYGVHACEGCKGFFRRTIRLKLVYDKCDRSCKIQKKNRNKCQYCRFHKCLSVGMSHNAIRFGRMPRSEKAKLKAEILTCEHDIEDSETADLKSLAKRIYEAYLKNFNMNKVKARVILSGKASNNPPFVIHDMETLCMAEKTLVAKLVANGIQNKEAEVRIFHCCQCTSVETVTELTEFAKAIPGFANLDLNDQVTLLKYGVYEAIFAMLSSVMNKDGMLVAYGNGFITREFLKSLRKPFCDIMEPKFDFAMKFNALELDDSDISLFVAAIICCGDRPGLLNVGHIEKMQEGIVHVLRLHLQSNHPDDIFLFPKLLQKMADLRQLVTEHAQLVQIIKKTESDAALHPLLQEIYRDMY

[4] = biological target: Peroxisome proliferator-activated receptor alpha (Homo sapiens) (UniProt Q07869); assay: Agonist activity at human recombinant PPARalpha expressed in CV1 cells coexpressing GAL4 assessed as receptor transactivation at 10 µM by luciferase reporter gene assay relative to full agonist; settings: CV-1
[5] = biological target: T4, Peroxisome proliferator-activated receptor alpha (Homo sapiens, UniProt Q07869); assay: Agonist activity at PPARalpha assessed as receptor transactivation by reporter gene assay; format: functional
T4 sequence (Q07869 whole entry): T3 sequence (whole entry)

CCCc1nc2c(C)cccc2n1Cc1ccc(OCc2nnn[nH]2)cc1
Activity [1]: inactive
Ki [2]: 5060 nM

CCCc1nc2c(C)cc(-c3nc4ccccc4n3C)cc2n1Cc1ccc(CCc2nnn[nH]2)cc1
Activity [1]: inactive
Ki [2]: 13.4 nM

CCCc1nc2c(C)cc(-c3nc4ccccc4n3C)cc2n1CCOc1ccc(CC(C)(Oc2ccccc2)C(=O)O)cc1 (centres undefined)
Activity [1]: 12%
Ki [2]: 2230 nM

CCCc1nc2c(C)cc(-c3nc4ccccc4n3C)cc2n1CCOc1ccc(CCc2nnn[nH]2)cc1
Activity [1]: inactive
Ki [2]: 1620 nM

CCCc1nc2c(C)cccc2n1Cc1ccc(CCC(=O)OC)cc1
Activity [1]: 2%
Ki [2]: > 10000 nM

CCCc1nc2c(C)cc(-c3nc4ccccc4n3C)cc2n1CCOc1ccc(CC(C)(Oc2ccccc2)C(=O)OCC)cc1 (centres undefined)
Activity [1]: 29%
Activity [3]: 15%
Activity [4]: 15%
Ki [2]: 2530 nM

CCCc1nc2c(C)cccc2n1Cc1ccc(OC(C)(C)C(=O)OCC)cc1
Activity [1]: 21%
Ki [2]: > 10000 nM

CCCc1nc2c(C)cccc2n1Cc1ccc(OCC(=O)OCC)cc1
Ki [2]: > 10000 nM

CCCc1nc2c(C)cccc2n1Cc1ccc(CCc2nnn[nH]2)cc1
Activity [1]: inactive
Ki [2]: 2840 nM

CCCc1nc2c(C)cccc2n1CCOc1ccc(CC(C)(Oc2ccccc2)C(=O)OCC)cc1 (centres undefined)
Activity [1]: 69%
Activity [3]: 93%
EC50 [5]: 300 nM
Activity [4]: 93%
Ki [2]: > 10000 nM

CCCc1nc2c(C)cccc2n1CCOc1ccc(CC(C)(C)C(=O)OCC)cc1
Activity [1]: 10%
Ki [2]: > 10000 nM

CCCc1nc2c(C)cccc2n1Cc1ccc(/C=C/C(=O)OCC)cc1
Activity [1]: 4%
Ki [2]: > 10000 nM

CCCc1nc2c(C)cc(-c3nc4ccccc4n3C)cc2n1Cc1ccc(-c2ccccc2C(=O)O)cc1
Activity [1]: 21.9%
